In patent US5985900A, “Metalloproteinase inhibitors, pharmaceutical compositions containing them and their pharmaceutical uses” (Agouron Pharmaceuticals, Inc., priority 1998, dated 1999):
Read-outs that look alike come from different tables or passages of the source. Values belong to the compound of their own block, whether it stands above or below them.

Experiments:
Assay type in all cases: biochemical
[1] = target: human progelatinase A (GelA) (Homo sapiens, UniProt P08253); test: In vitro MMP inhibition assay (hydrolysis of fluorogenic MCA peptide substrate), gelatinase A
Chain of human progelatinase A (GelA) (P08253 110-446 limits assumed): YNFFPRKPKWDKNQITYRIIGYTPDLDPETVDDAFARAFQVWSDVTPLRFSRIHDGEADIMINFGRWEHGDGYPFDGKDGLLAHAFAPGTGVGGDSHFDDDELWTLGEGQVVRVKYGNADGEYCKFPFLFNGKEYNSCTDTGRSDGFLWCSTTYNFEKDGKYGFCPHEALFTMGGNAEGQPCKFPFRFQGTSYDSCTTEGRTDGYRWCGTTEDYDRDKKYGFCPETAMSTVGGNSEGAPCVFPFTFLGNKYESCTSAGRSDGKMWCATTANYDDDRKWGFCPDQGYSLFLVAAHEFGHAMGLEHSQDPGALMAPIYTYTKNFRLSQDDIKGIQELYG
Method: The catalytic and fibronectin-like portion of human progelatinase A (GelA) was expressed as a fusion protein with ubiquitin in E. Coli. Assays were carried out on autocatalytically activated material.
(§1) Assays were performed in assay buffer (50 mM Tricine pH 7.5, 200 mM sodium chloride, 10 mM calcium chloride, 0.5 mM zinc acetate containing 2% dimethyl sulfoxide (DMSO)) once the substrate and inhibitor were diluted into it. Stock solutions of inhibitors were prepared in 100% DMSO. Stock solutions of the substrate were prepared in 100% DMSO at a concentration of 6 mM.
(§2) The assay method was based on the hydrolysis of MCA-Pro-Leu-Gly-Leu-DPA-Ala-Arg-NH2 (American Peptide Co.) at 37° C. (see Knight, C. G. et al., FEBS, 1992, 296, 263-266). The fluorescence changes were monitored with a Perkin-Elmer LS-50B fluorimeter using an excitation wavelength of 328 nm and an emission wavelength of 393 nm. The substrate concentration used in the assays was 10 μM. The inhibitor was diluted into the assays from a solution in 100% DMSO, and controls substituted an equal volume of DMSO so that the final DMSO concentration from inhibitor and substrate dilution in all assays was 2%. […] Proper determination of steady-state rates of substrate cleavage required assay lengths of 60 minutes to allow for complete equilibration of the enzyme-inhibitor complex.
(§3) The Km for the MCA peptide substrate with the matrix metalloproteinases is quite high and exceeds its solubility under assay conditions. Consequently, the apparent Ki (Ki,app) was determined to describe the strength of inhibition. However, in this case, Ki,app would be essentially equal to Ki since [S]<<Km. For the determination of Ki,app, the concentration of the inhibitor was varied at a constant and low concentration of substrate and the steady-state rates of fluorescence change determined. In most cases absorptive quench due to the presence of ligand was not observed. For slow-binding inhibitors, onset of inhibition curves were collected for at least 45 minutes so that equilibrium was established. Steady-state rates of fluorescence change were obtained by fitting a curve to an equation for a single exponential decay containing a linear phase. The fitted value of the linear phase was taken as the steady-state rate. The steady-state rates were fitted to the Michaelis equation describing competitive inhibition by non-linear methods. Data resulting from tight-binding inhibition was analyzed, and Ki,app determined by fitting the data to the tight-binding equation of Morrison (Biochem. Biophys. Acta, vol. 185, pp. 269-286 (1969)) by non-linear methods.
(§4) All Ki values are in nM units.

[2] = target: human stromelysin (Sln) (Homo sapiens, UniProt P08254); test: In vitro MMP inhibition assay (hydrolysis of fluorogenic MCA peptide substrate), stromelysin
Chain of human stromelysin (Sln) (P08254 100-272 limits assumed): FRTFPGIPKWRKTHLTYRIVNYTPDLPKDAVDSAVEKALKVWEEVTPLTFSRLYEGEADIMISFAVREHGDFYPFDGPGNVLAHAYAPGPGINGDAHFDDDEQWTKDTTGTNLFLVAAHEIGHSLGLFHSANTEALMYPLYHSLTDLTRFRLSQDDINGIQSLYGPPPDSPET
Method: The catalytic domain of human stromelysin (Sln) was obtained by expression and purification of a C-terminally truncated prostromelysin-1 from E. coli host BL21 (see Marcy et al. Biochem., 1991, 30, 6476). The subsequent activation of the mature form (Sln) was completed with 2 mM APMA for 1 hour at 37° C., followed by separation using a sizing column.
as §1, §2, §3, §4

[3] = target: T1, human collagenase-3 (Coll3) (Homo sapiens, UniProt P45452); test: In vitro MMP inhibition assay (hydrolysis of fluorogenic MCA peptide substrate), collagenase-3; settings: Table 1; Ki,app; MCA peptide substrate 10 μM, 37° C., pH 7.5, 2% DMSO
T1 construct: catalytic domain liberated with APMA
Method: The propeptide and catalytic domain of human collagenase-3 (Coll3) was expressed in E. coli as an N-terminal fusion protein with ubiquitin. After purification of the fusion from inclusion bodies, the catalytic domain was liberated by treatment with 2 mM APMA at room temperature overnight. Final purification was completed using copper chelate chromatography.
as §1, §2, §3, §4

[4] = Table 1, Ki,app, MCA peptide substrate 10 μM, 37° C., pH 7.5, 2% DMSO, read-out: Gel A
[5] = Table 1, Ki,app, MCA peptide substrate 10 μM, 37° C., pH 7.5, 2% DMSO, read-out: Sin Ki

SMILES: COC(=O)CCSC(C)(C)[C@@H](NS(=O)(=O)c1ccc(Oc2ccc(F)cc2)cc1)C(=O)O [Example 7, S--[2-(Methoxycarbonyl)ethyl]--N--[4-(4-fluorophenoxy)benzenesulfonyl]-D-penicillamine]
- Ki [1, 4]: 165 nM
- Ki [2, 5]: 10500 nM

SMILES: CC(C)(C)OC(=O)CSC(C)(C)[C@@H](NS(=O)(=O)c1ccc(Oc2ccc(F)cc2)cc1)C(=O)O [Example 3n, S--(t-Butoxycarbonyl)methyl--N--[4-(4-fluorophenoxy)benzenesulfonyl]-D-penicillamine]
- Ki [1, 4]: 183 nM
- Ki [2, 5]: 5700 nM
- Ki [3]: 574 nM

SMILES: Cc1cc(CSC(C)(C)[C@@H](NS(=O)(=O)c2ccc(Oc3ccc(Br)cc3)cc2)C(=O)O)no1 [Example 3k, N-[4-(4-Bromophenoxy)benzenesulfonyl]--S--[(5-methylisoxazol-3-yl)-methyl]-D-penicillamine]
- Ki [1, 4]: 4.2 nM
- Ki [2, 5]: 2600 nM
- Ki [3]: 209 nM

SMILES: CC(C)(C)[C@@H](NS(=O)(=O)c1ccc(Oc2ccccc2)cc1)C(=O)O [Example 3r, N-[4-Phenoxybenzenesulfonyl]-D-tert-leucine]
- Ki [1, 4]: 104 nM
- Ki [2, 5]: 12700 nM
- Ki [3]: 616 nM

SMILES: CC(C)(SCc1ccccn1)[C@@H](NS(=O)(=O)c1ccc(Oc2ccc(I)cc2)cc1)C(=O)O [Example 3i, N-[4-(4-Iodophenoxy)benzenesulfonyl]--S--[(pyrid-2-yl)methyl]-D-penicillamine]
- Ki [1, 4]: 3.3 nM
- Ki [2, 5]: 1180 nM
- Ki [3]: 196 nM

SMILES: CC(C)(SCc1ccncc1)[C@@H](NS(=O)(=O)c1ccc(Oc2ccc(F)cc2)cc1)C(=O)O [Example 3f, N-[4-(4-Fluorophenoxy)benzenesulfonyl]--S--[(pyrid-4-yl)methyl]-D-penicillamine]
- Ki [1, 4]: 311 nM
- Ki [2, 5]: 6300 nM
- Ki [3]: 829 nM

SMILES: CC(C)(SCc1nccn1Cc1ccccc1)[C@@H](NS(=O)(=O)c1ccc(Oc2ccc(Br)cc2)cc1)C(=O)O [Example 3b, N-[4-(4-Bromophenoxy)benzenesulfonyl]--S--[(1-benzyl-1H-imidazol-2-yl)methyl]-D-penicillamine]
- Ki [1, 4]: 1.8 nM
- Ki [2, 5]: 558 nM
- Ki [3]: 108 nM

SMILES: CC(C)(SCc1ccccn1)[C@@H](NS(=O)(=O)c1ccc(Oc2ccc(F)cc2)cc1)C(=O)O [Example 3c, N-[4-(4-Fluorophenoxy)benzenesulfonyl]--S--[(pyrid-2-yl)methyl]-D-penicillamine]
- Ki [1, 4]: 44 nM
- Ki [2, 5]: 2550 nM
- Ki [3]: 110 nM

SMILES: CC(C)(SCc1cccnc1)[C@@H](NS(=O)(=O)c1ccc(Oc2ccc(F)cc2)cc1)C(=O)O [Example 3e, N-[4-(4-Fluorophenoxy)benzenesulfonyl]--S--[(pyrid-3-yl)methyl]-D-penicillamine]
- Ki [1, 4]: 517 nM
- Ki [2, 5]: 6900 nM
- Ki [3]: 1100 nM

SMILES: Cn1ccnc1CSC(C)(C)[C@@H](NS(=O)(=O)c1ccc(Oc2ccc(Br)cc2)cc1)C(=O)O [Example 3o]
- Ki [1, 4]: 34 nM
- Ki [2, 5]: 2150 nM

SMILES: Cc1ccc(S(=O)(=O)NCC(=O)NO)cc1 [Compound 13, N-hydroxy-2-(toluene-4-sulfonylamino)acetamide, reference compound]
- Ki ([1]; Table 2, comparative example, gelatinase A, read-out: GELATINASE Kj): 3500 nM
- Ki ([2]; Table 2, comparative example, read-out: STROMELYSIN Ki): 3400 nM

SMILES: CC(C)(O)[C@@H](NS(=O)(=O)c1ccc(Oc2ccc(Br)cc2)cc1)C(=O)O [Example 3s, N-[4-(4-Bromophenoxy)benzenesulfonyl]-D--(β-hydroxy)valine]
- Ki [1, 4]: 900 nM
- Ki [2, 5]: 348000 nM

SMILES: CC(C)(SCc1ccccn1)[C@@H](NS(=O)(=O)c1ccc(Oc2ccc(C(F)(F)F)cc2)cc1)C(=O)O [Example 3j, N-[4-(4-(trifluoromethyl)phenoxy)benzenesulfonyl]--S--[(pyrid-2-yl)methyl]-D-penicillamine]
- Ki [1, 4]: 48 nM
- Ki [2, 5]: 2950 nM

Other lines, results leading:

- Ki [1, 4]: 890 nM
- Ki [2, 5]: 97000 nM
- Ki [3]: 7000 nM
SMILES: Cc1cc(CSC(C)(C)[C@@H](NS(=O)(=O)c2ccc(Sc3ccncc3)cc2)C(=O)O)no1 [Example 4c, S--[(5-Methylisoxazol-3-yl)methyl]--N--[4(pyrid-4-yl)sulfanylbenzenesulfonyl]-D-penicillamine]

- Ki [1, 4]: 0.75 nM
- Ki [2, 5]: 38 nM
- Ki [3]: 1.6 nM
SMILES: Cc1cc(CSC(C)(C)[C@@H](NS(=O)(=O)c2ccc(Sc3ccncc3)cc2)C(=O)NO)no1 [Example 10b, 2(S)--N-hydroxy-3-methyl-3-(5-methylisoxazol-3-yl)methylsulfanyl-2-[(4-{(pyrid-4-yl)sulfanyl}benzenesulfonyl)amino]butanamide]

- Ki [2, 5]: 0.29 nM
- Ki [3]: 0.015 nM
SMILES: CC(C)(SCc1ccccn1)[C@@H](NS(=O)(=O)c1ccc(Oc2ccc(I)cc2)cc1)C(=O)NO [Example 9f, 2(S)--N-hydroxy-3-methyl-3-(pyrid-2-yl)methylsulfanyl-2-[(4-(4-iodophenoxy)benzenesulfonyl)amino]butanamide]

- Ki [1, 4]: 0.036 nM
- Ki [2, 5]: 0.73 nM
SMILES: Cc1ccc(Oc2ccc(S(=O)(=O)N[C@@H](C(=O)NO)C(C)(C)SCc3ccccn3)cc2)cc1 [Example 9g, 2(S)--N-hydroxy-3-methyl-3-(pyrid-2-yl)methylsulfanyl-2-[(4-(4-methylphenoxy)benzenesulfonyl)amino]butanamide]

- Ki [1, 4]: 215 nM
- Ki [2, 5]: 17000 nM
- Ki [3]: 696 nM
SMILES: CSC(C)(C)[C@@H](NS(=O)(=O)c1ccc(Oc2ccc(Cl)cc2)cc1)C(=O)O [Example 6b, S-Methyl--N--[4-(4-chlorophenoxy)benzenesulfonyl]-D-penicillamine]

- Ki [1, 4]: 0.024 nM
- Ki [2, 5]: 0.63 nM
SMILES: Cc1cc(CSC(C)(C)[C@@H](NS(=O)(=O)c2ccc(Oc3ccc(F)cc3)cc2)C(=O)NO)no1 [Example 9c, 2(S)--N-hydroxy-3-methyl-3-(5-methylisoxazol-3-yl)methylsulfanyl-2-[(4-(4-fluorophenoxy)benzenesulfonyl)amino]butanamide]

- Ki [2, 5]: 0.24 nM
- Ki [3]: 0.013 nM
SMILES: Cc1cc(CSC(C)(C)[C@@H](NS(=O)(=O)c2ccc(Oc3ccc(Br)cc3)cc2)C(=O)NO)no1 [Example 9d, 2(S)--N-hydroxy-3-methyl-3-(5-methylisoxazol-3-yl)methylsulfanyl-2-[(4-(4-bromophenoxy)benzenesulfonyl)amino]butanamide]

- Ki [1, 4]: 0.11 nM
- Ki [2, 5]: 0.2 nM
SMILES: Cn1ccnc1CSC(C)(C)[C@@H](NS(=O)(=O)c1ccc(Oc2ccc(Br)cc2)cc1)C(=O)NO [Example 9n, 2(S)--N-hydroxy-3-methyl-3-(1-methyl-1H-imidazol-2-yl)-methylsulfanyl-2-[(4-(4-bromophenoxy)benzenesulfonyl)amino]butanamide]

- Ki [1, 4]: 334 nM
- Ki [2, 5]: 5700 nM
SMILES: CC(C)(SCCC(N)=O)[C@@H](NS(=O)(=O)c1ccc(Oc2ccc(F)cc2)cc1)C(=O)O [Example 8b, S--[2-(Aminocarbonyl)ethyl]--N--[4-(4-fluorophenoxy)benzenesulfonyl]-D-penicillamine]

- Ki [1, 4]: 373 nM
- Ki [2, 5]: 12500 nM
SMILES: CC(C)(SCCO)[C@@H](NS(=O)(=O)c1ccc(Oc2ccc(F)cc2)cc1)C(=O)O [Example 8a, S--[2-Hydroxyethyl]--N--[4-(4-fluorophenoxy)benzenesulfonyl]-D-penicillamine]

- Ki [1, 4]: 0.32 nM
- Ki [2, 5]: 11.4 nM
SMILES: Cc1cc(CSC(C)(C)[C@@H](NS(=O)(=O)c2ccc(Oc3ccncc3)cc2)C(=O)NO)no1 [Example 10a, 2(S)--N-hydroxy-3-methyl-3-(5-methylisoxazol-3-yl)methylsulfanyl-2-[(4-(pyrid-4-yloxy)benzenesulfonyl)amino]butanamide]

- Ki [1, 4]: 27 nM
- Ki [2, 5]: 751 nM
SMILES: Cc1cc(CSC(C)(C)[C@@H](NS(=O)(=O)c2ccc(Oc3ccncc3)cc2)C(=O)O)no1 [Example 4b, S--[(5-Methylisoxazol-3-yl)methyl]--N--[4(pyrid-4-yl)oxybenzenesulfonyl]-D-penicillamine]
